Source: ChEMBL document CHEMBL3124877, “Structure-activity-relationship studies around the 2-amino group and pyridine core of antimalarial 3,5-diarylaminopyridines lead to a novel series of pyrazine analogues with oral in vivo activity” (J Med Chem, 2013)

Columns and labels:
Liver microsome [1] = conditions: human, microsomes
physchem = conditions: octanol/water, pH 7.4
Liver microsome [2] = test: (§1) Half life in human liver microsomes by LC-MS/MS analysis; format: ADME; conditions: microsomes
in vitro = conditions: human, liver microsomes
[3] = as §1; format: ADME; conditions: liver microsomes
Plasma = test: Apparent plasma concentration in mouse infected with Plasmodium berghei ANKA at 3 mg/kg, po measured after 24 hrs; format: ADME, organism-based; design: dose 3 mg/kg, route oral; conditions: in vivo
[4] = Apparent AUC in mouse infected with Plasmodium berghei ANKA at 3 mg/kg, po measured after 24 hrs; format: ADME, organism-based; design: time < 24 hr, dose 3 mg/kg, route oral; conditions: in vivo
[5] = Apparent Cmax in mouse infected with Plasmodium berghei ANKA at 3 mg/kg, po measured after 24 hrs; format: ADME, organism-based; design: dose 3 mg/kg, route oral; conditions: in vivo
Liver microsome [6] = test: Metabolic stability in rat liver microsomes; format: ADME

SMILES	CLH (Liver microsome [1])	logD (physchem)	t1/2 (Liver microsome [2])	microsomal CLint (in vitro)	half-life [3]	Cave (Plasma)	AUC at 24 h [4]	Cmax [5]	Stability (Liver microsome [6])
COc1ccc(-c2cncc(-c3ccc(S(C)(=O)=O)cc3)c2)cn1	11.3 µL/min/mg	2.5	0.683 h						
COc1ccc(-c2nc(-c3ccc(S(C)(=O)=O)cc3)cnc2N)cn1		2.3		11 µL/min/mg	2.57 h				
COc1ccc(-c2cc(-c3ccc(S(C)(=O)=O)cc3)nnc2N)cn1		1.7		< 7 µL/min/mg	> 4.17 h				
COc1ccc(-c2csc3c(-c4ccc(S(C)(=O)=O)cc4)cnc(N)c23)cn1		2.9		< 7 µL/min/mg	> 4.17 h				
CS(=O)(=O)c1ccc(-c2cnc(N)c(-c3ccc(C(F)(F)F)nc3)n2)cc1		2.8		< 7 µL/min/mg	> 4.17 h	1000 nM	24.3 µM·h	1500 nM	Stable
CS(=O)(=O)c1ccc(-c2cnc(N)c(-c3ccc(C(F)(F)F)cc3)n2)cc1		2.8		11 µL/min/mg	2.58 h	300 nM	6.4 µM·h	500 nM	
Nc1ncc(-c2ccc(C(=O)N3CCOCC3)cc2)nc1-c1ccc(C(F)(F)F)nc1				< 7 µL/min/mg	> 4.17 h				
Nc1ncc(-c2ccc(C(=O)N3CCOCC3)cc2)nc1-c1ccc(C(F)(F)F)cc1		3.2		< 7 µL/min/mg	> 4.17 h	10 nM	0.01 µM·h	1100 nM	
CCS(=O)(=O)c1ccc(-c2cnc(N)c(-c3ccc(C(F)(F)F)nc3)n2)cc1		3.1		8 µL/min/mg	3.62 h	10 nM	0.01 µM·h	1100 nM	
CNS(=O)(=O)c1ccc(-c2cnc(N)c(-c3ccc(C(F)(F)F)nc3)n2)cc1		2.8		12 µL/min/mg	1.85 h	10 nM	0.01 µM·h	2000 nM	
CNc1ncc(-c2ccc(S(C)(=O)=O)cc2)cc1-c1ccc(OC)nc1		2.6							
COc1ccc(-c2cc(-c3ccc(S(C)(=O)=O)cc3)cnc2NCCCCN)cn1		1.8		< 7 µL/min/mg	> 4.17 h				
COc1ccc(-c2cc(-c3ccc(S(C)(=O)=O)cc3)cnc2I)cn1		3.3		7.3 µL/min/mg	3.97 h				
COc1ccc(-c2cc(-c3ccc(S(C)(=O)=O)cc3)cnc2O)cn1		1.7							
CCOc1ncc(-c2ccc(S(C)(=O)=O)cc2)cc1-c1ccc(OC)nc1		3.7		14.2 µL/min/mg	2.03 h				
COc1ccc(-c2cc(-c3ccc(S(C)(=O)=O)cc3)cnc2C(F)(F)F)cn1		3							
COc1ccc(-c2nc(-c3ccc(S(C)(=O)=O)cc3)ccc2N)cn1		2.3							
COc1ccc(-c2cc(-c3ccc(S(C)(=O)=O)cc3)ccc2N)cn1		2.8		< 7 µL/min/mg	> 4.17 h				
COc1ccc(-c2cc(-c3ccc(S(C)(=O)=O)cc3)cnc2N)cn1		2.2		6.2 µL/min/mg	4.68 h				
